Measurements as given in US7994133B2, “Isozyme-specific antagonists of protein kinase C” (The Board of Trustees of the Leland Stanford Junior …, priority 2003, dated 2011).

Experiments:
Format in all cases: cell-based
[1] = system: neonatal rat cardiac myocytes; assay: Cardiac myocyte contraction rate measurement; conditions: for effect on ΨεRACK effect on contraction (negative chronotropy): PMA and ΨεRACK, prior application of the inhibitor; for agonistic effect on contraction rate of cardiac myocytes: prior to PMA; for effect on the decrease in contraction rate induced by PMA: 1 nM or 5 nM PMA about 20 minutes after peptide
Experimental: Primary cardiac myocyte cell cultures (90-95% pure) were prepared from newborn rats as previously described (Gray, M. O., et al., J. Biol. Chem. 272:30945-30951, (1997); Disatnik, M.-H., et al., Exp. Cell Res. 210:287-297, (1994)). Peptides (100 nM-1 μM applied concentration) were introduced into cells by transient permeabilization (Johnson, J. A., et al., Circ. Res. 79:1086-1099, (1996)) with sham permeabilization as control, or as carrier-peptide conjugates (30 nM-1 μM) (Derossi, D. et al., surpa (1994); Derossi, D. et al., surpa (1996); Théodore, L., et al., surpa (1995)) with a carrier-carrier dimer as a control.
Cells were treated for 10-20 minutes in the absence or presence of peptide followed by an additional incubation with or without 1 nM phorbol 12-myristate 13-acetate (PMA) for 10 or 20 minutes. Alternatively, cells were incubated for 10 minutes with 100 nM PMA (positive control) or in the absence of PMA.
Measurements of cardiac myocyte contraction rate were carried out essentially as previously described (Johnson, J. A., et al., J. Biol. Chem. 271:24962-24966, (1996). In brief, cardiomyocytes cultured on 35 mm plates were placed in a temperature-regulation apparatus at 37° C. (Medical Systems Corp.) and positioned on the stage of an inverted microscope (Carl Zeiss Inc.). The contraction rates of four cells in one microscopic field were determined every 2 minutes for 15 seconds each. The basal contraction rate (˜300 beats/minute) was stable over many hours.
Peptide SEQ ID Nos:3, 55 and 79 were introduced into cardiac myocyte cell cultures prepared from newborn rats by transient permeabilization, with sham permeabilization as control, or as carrier-peptide conjugates with a carrier-carrier dimer as control. The cells were treated for 10-20 minutes in the absence or presence of peptide followed by an additional incubation with or without phorbol 12-myristate 13-acetate (PMA) for 10 or 20 minutes. Alternatively, cells were incubated for 10 minutes with 100 nM PMA (positive control) or in the absence of PMA. The effect of the peptide and/or PMA was determined by measuring the contraction rate of the myocytes, as described in Example 1B.

rat cardiac myocytes = assay: Simulated ischemia, cell damage by trypan blue exclusion; conditions: for effect on ΨεRACK-induced protection from ischemic damage: in combination with ΨεRACK; for effect on response to ischemia: peptide alone before simulated ischemia
Experimental: Cardiac myocytes were isolated from adult male rats as previously described (Chen et al., Proc. Natl. Acad. Sci., 96(22):12784 (1999)). Myocytes in incubation buffer were treated with a peptide or combination of peptides, prepared as described in Example 1, for 15 minutes. Myocytes were then pelleted at 1000 rpm for 1 minute in a degassed incubation buffer saturated with nitrogen and incubated at 37° C. for 3 hours to simulate ischemia. Cell damage was assessed after the 3 hours by trypan blue exclusion and percent cell with damage was determined as previously described (Chen et al., Proc. Natl. Acad. Sci., 96(22):12784 (1999)).

[2] = system: neonatal rat cardiac myocytes; assay: Cardiac myocyte contraction rate measurement; conditions: 40 minutes after PMA addition, n=4, p<0.05; PMA alone versus with N-ΨεRACK

| Compound | effect on ΨεRACK effect on contraction (negative chronotropy) [1] | effect on ΨεRACK-induced protection from ischemic damage (rat cardiac myocytes) | agonistic effect on contraction rate of cardiac myocytes ([1]; peptide alone) | effect on response to ischemia (rat cardiac myocytes) | effect on the decrease in contraction rate induced by PMA [1] | decrease in contraction rate induced by 10 nM PMA [2] | other results |
| --- | --- | --- | --- | --- | --- | --- | --- |
| EAVSLKPT (listed as Homo sapiens) [εV1-2, reference compound] | abolished | reversed |  |  |  |  |  |
| COc1ccc2c(c[n+](C)c3c4cc5c(cc4ccc23)OCO5)c1OC [chelerythrine, reference compound] | inhibited | reversed |  |  |  |  |  |
| HAAPIGYD (Alternative pseudo-epsilon RACK peptide) [A-ΨεRACK] |  | did not | not induced | no effect |  |  |  |
| HDAPIGYD (listed as Homo sapiens) [ΨεRACK, εPKC agonist peptide, εPKC amino acid residues 85-92] |  |  |  |  | reduced the decrease in contraction rate |  | decrease in contraction rate from the basal rate ([1]; peptide alone, 20 minutes after peptide addition): 9±2%; decrease from the basal contraction rate ([1]; ΨεRACK together with PMA): 44±6%; reduction of ischemia-induced cell damage (rat cardiac myocytes; peptide 15 minutes before 3 hours simulated ischemia): 60% |
| CCCCCCCCCCCCCC(=O)O[C@@H]1[C@@H](C)[C@@]2(O)[C@@H](C=C(CO)C[C@]3(O)C(=O)C(C)=C[C@@H]23)[C@@H]2C(C)(C)[C@]12OC(C)=O [PMA, phorbol 12-myristate 13-acetate, reference compound] |  |  |  |  |  | 47±3% | decrease from the basal contraction rate ([1]; PMA alone): 11±4% |
| HNAPIGYD (A modification of SEQ ID NO3) [N-ΨεRACK, εPKC antagonist peptide derived from ΨεRACK, D substituted by N] |  | abolished | no agonistic effect | no effect | able to reduce the decrease in contraction rate | 24±5% | decrease in contraction rate ([1]; cells treated with N-ΨεRACK, then ΨεRACK at 15 minutes and 1 nM PMA at 30 minutes): < 10% |
